From the supplement of paper PMC6045584
± gives the standard deviation of the averaged measurements.

Experiments:
[1] = compound: Cn1ncnc1[C@H]1c2n[nH]c(=O)c3cc(F)cc(c23)N[C@@H]1c1ccc(F)cc1 [BMN-673]; test: surviving fraction relative to DMSO-only wells; higher = less growth inhibition; settings: exposure time: 5 days
Outline: (§1)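 Viability was scored with CellTiter-Glo luminescence and normalised to the median of DMSO-only wells as surviving fraction. Beforehand, log-phase tumour cell lines were seeded at 250–500 cells per well in 384-well plates, allowed 24 hours, and exposed continuously for five days to inhibitors at 0.5, 1, 5, 10, 50, 100, 500 and 1000 nM. Only lines whose three screens gave replicate Pearson r >0.7 and median Z' >0.3 were kept.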

[2] = compound: COc1cc2nccc(Oc3ccc(NC(=O)NC4CC4)c(Cl)c3)c2cc1C(N)=O [LENVATINIB]; test: as above; settings: exposure time: 5 days
Outline: as §1

Test System	surviving fraction ([1]; 0.5 nM)	surviving fraction ([1]; 1 nM)	surviving fraction ([1]; 5 nM)	surviving fraction ([1]; 10 nM)	surviving fraction ([1]; 50 nM)	surviving fraction ([1]; 100 nM)	surviving fraction ([1]; 500 nM)	surviving fraction ([1]; 1000 nM)	surviving fraction ([2]; 0.5 nM)	surviving fraction ([2]; 1 nM)	surviving fraction ([2]; 5 nM)	surviving fraction ([2]; 10 nM)	surviving fraction ([2]; 50 nM)	surviving fraction ([2]; 100 nM)	surviving fraction ([2]; 500 nM)	surviving fraction ([2]; 1000 nM)
CCK81 LARGE INTESTINE	0.838 ± 0.087	0.781 ± 0.094	0.733 ± 0.091	0.619 ± 0.092	0.54 ± 0.034	0.552 ± 0.03	0.493 ± 0.079	0.406 ± 0.058								
G292 BONE	1.02 ± 0.058	0.933 ± 0.033	0.923 ± 0.041	0.846 ± 0.048	0.732 ± 0.045	0.698 ± 0.016	0.54 ± 0.035	0.459 ± 0.015	0.99 ± 0.053	0.993 ± 0.054	1.02 ± 0.065	0.961 ± 0.019	0.838 ± 0.027	0.725 ± 0.013	0.33 ± 0.017	0.203 ± 0.0041
HCC38 BREAST	1.06 ± 0.11	0.92 ± 0.2	0.778 ± 0.14	0.603 ± 0.11	0.585 ± 0.084	0.43 ± 0.065	0.301 ± 0.046	0.253 ± 0.031	1.03 ± 0.056	1.19 ± 0.23	1.24 ± 0.24	1.19 ± 0.091	1.35 ± 0.052	1.28 ± 0.054	1.18 ± 0.091	1.09 ± 0.17
HCC70 BREAST	1.05 ± 0.11	1.05 ± 0.11	1.12 ± 0.069	0.977 ± 0.065	0.789 ± 0.054	0.657 ± 0.074	0.411 ± 0.1	0.341 ± 0.022	1.12 ± 0.07	1.136 ± 0.004	1.08 ± 0.067	1.15 ± 0.013	1.27 ± 0.1	1.13 ± 0.056	1.054 ± 0.0066	1.23 ± 0.09
HMLE3 BREAST	1.08 ± 0.048	1.11 ± 0.053	1 ± 0.2	0.902 ± 0.1	0.644 ± 0.035	0.604 ± 0.03	0.339 ± 0.056	0.277 ± 0.036	1.03 ± 0.019	0.951 ± 0.054	1.03 ± 0.052	1.05 ± 0.09	0.998 ± 0.12	0.905 ± 0.096	0.718 ± 0.029	0.658 ± 0.047
HMT3552 BREAST	1.01 ± 0.064	0.943 ± 0.036	0.889 ± 0.047	0.775 ± 0.073	0.713 ± 0.063	0.574 ± 0.01	0.375 ± 0.026	0.264 ± 0.0075	1.03	0.978	1.01	0.921	0.975	1.02	0.944	0.893
HS578T BREAST	1.02 ± 0.035	1.14 ± 0.14	1.05 ± 0.091	0.958 ± 0.12	0.902 ± 0.075	0.841 ± 0.043	0.669 ± 0.076	0.61 ± 0.087	0.934 ± 0.11	1.16 ± 0.058	0.871 ± 0.17	0.974 ± 0.041	0.984 ± 0.078	0.91 ± 0.068	1.01 ± 0.1	0.871 ± 0.045
